The values that follow come from patent US20250215029A1 (Recludix Pharma, Inc., priority 2022, published 2025).

The target of one assay is T1, pY641-STAT6 in PBMC (Homo sapiens, UniProt P42226).
T1 construct: Cryopreserved Peripheral Blood Mononuclear Cells (PBMC) are from AllCells; host or cells: cryopreserved PBMC
T1 sequence (P42226 1-847): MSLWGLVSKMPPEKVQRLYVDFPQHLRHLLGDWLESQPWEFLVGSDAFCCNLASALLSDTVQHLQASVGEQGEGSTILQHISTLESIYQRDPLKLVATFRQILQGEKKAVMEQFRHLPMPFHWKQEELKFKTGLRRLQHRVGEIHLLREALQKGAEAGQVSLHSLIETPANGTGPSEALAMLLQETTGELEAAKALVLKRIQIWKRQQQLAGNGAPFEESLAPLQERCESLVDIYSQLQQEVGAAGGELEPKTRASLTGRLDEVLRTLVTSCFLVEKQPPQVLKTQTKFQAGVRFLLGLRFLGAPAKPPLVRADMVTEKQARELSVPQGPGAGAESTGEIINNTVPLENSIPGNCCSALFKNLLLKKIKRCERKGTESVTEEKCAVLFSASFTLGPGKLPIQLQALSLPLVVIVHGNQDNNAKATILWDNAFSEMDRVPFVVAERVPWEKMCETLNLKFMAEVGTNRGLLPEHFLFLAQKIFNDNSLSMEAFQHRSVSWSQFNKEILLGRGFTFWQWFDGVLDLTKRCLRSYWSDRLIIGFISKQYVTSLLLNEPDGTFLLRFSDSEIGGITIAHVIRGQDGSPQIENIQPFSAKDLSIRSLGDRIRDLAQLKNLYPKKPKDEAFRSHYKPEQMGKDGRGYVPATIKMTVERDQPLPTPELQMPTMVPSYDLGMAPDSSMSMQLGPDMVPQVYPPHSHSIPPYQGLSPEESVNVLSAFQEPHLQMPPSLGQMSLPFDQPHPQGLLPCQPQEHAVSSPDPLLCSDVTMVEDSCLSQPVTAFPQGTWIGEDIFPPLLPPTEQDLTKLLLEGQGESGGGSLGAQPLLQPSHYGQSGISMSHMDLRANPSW
The experiment in a line: MSD-pSTAT-PBMC Assay (pSTAT6, IL-4 stimulated). In kind it is cell-based. Conditions: PBMC, compound 3 hrs, then 1 ng/mL IL-4 for 10 min; Table 1114; read-out: pSTAT6. The method in brief:
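Thawed human PBMC rested overnight in IMDM/10% FBS, then got compound for 3 hrs before a 10 min cytokine pulse: 1 ng/mL IL-4 for pSTAT6, 10 ng/mL IL-6 for pSTAT3. Lysates went to MSD sandwich capture on total STAT6 or STAT3 with phospho-specific detection. IC50 came from background-subtracted, DMSO-normalized signal.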

For another assay, the target named is T2, pY705-STAT3 in PBMC (Homo sapiens, UniProt P40763).
T2 construct: Cryopreserved Peripheral Blood Mononuclear Cells (PBMC) are from AllCells; host or cells: cryopreserved PBMC
In words: MSD-pSTAT-PBMC Assay (pSTAT3, IL-6 stimulated). In kind it is cell-based. Conditions: PBMC, compound 3 hrs, then 10 ng/mL IL-6 for 10 min; Table 1114; read-out: pSTAT3. The gist of the method:
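pY705-STAT3 was detected electrochemiluminescently on total-STAT3 capture plates, using lysates of human PBMCs given compound for 3 h and then IL-6 (10 ng/mL, 10 min). Values were background-subtracted against unstimulated wells and set relative to DMSO. IC50 was fitted with variable slope.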

T2 sequence (P40763 whole entry): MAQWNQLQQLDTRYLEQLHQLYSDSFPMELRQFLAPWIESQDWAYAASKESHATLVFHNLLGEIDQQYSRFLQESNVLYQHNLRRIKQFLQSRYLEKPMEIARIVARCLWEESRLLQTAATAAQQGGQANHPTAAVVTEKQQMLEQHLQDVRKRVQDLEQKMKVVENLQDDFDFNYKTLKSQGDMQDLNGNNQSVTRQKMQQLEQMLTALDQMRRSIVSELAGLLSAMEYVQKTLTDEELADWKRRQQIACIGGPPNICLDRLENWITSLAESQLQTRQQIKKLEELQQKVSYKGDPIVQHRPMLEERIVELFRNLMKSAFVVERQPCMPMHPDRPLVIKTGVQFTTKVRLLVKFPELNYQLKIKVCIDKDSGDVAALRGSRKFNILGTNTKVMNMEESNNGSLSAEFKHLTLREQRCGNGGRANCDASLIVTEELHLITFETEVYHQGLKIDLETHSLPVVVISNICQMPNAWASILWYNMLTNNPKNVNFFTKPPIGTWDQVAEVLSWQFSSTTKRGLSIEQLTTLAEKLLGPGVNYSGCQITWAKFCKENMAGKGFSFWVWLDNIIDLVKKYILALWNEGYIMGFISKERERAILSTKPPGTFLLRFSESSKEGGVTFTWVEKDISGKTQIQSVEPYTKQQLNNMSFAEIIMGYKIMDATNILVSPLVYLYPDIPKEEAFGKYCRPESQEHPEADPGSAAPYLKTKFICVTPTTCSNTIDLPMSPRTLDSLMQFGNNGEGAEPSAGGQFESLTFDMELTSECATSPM

With `CC(C)CC(=O)SCCOP(=O)(OCCSC(=O)CC(C)C)C(F)(F)c1ccc2sc(C(=O)N[C@H]3CCC[C@H]4CC[C@@H](C(=O)N5CC(c6cccnc6)C5)N4C3=O)cc2c1` [Compound 177, S,S′-((((difluoro(2-(((3S,6S,9aS)-5-oxo-3-(3-(pyridin-3-yl)azetidine-1-carbonyl)octahydro-1H-pyrrolo[1,2-a]azepin-6-yl)carbamoyl)benzo[b]thiophen-5-yl)methyl)phosphoryl)bis(oxy))bis(ethane-2,1-diyl)) bis(3-methylbutane thioate)], the IC50 at pY641-STAT6 in PBMC was 1000 to 3000 nM; on pY705-STAT3 in PBMC, below 100 nM.
